Data published in patent publication US20250361230A1, “LATS Inhibitors and Uses Thereof” (The USA, as Represented by the Secretary, Dept. of Heath …, priority 2022, published 2025).

Experiments:
AKT = AKT (Homo sapiens, UniProt P31749); experiment: RBC HotSpot kinase assay (33P-ATP, P81 filter-binding), AKT; assay type: biochemical; details: biochemical kinase inhibition; read-out: AKT IC50
Summary of the method: (§1)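 Substrate in fresh buffer receives cofactors, then kinase, then compound in DMSO for a 20 min room-temperature preincubation. Reactions start with 33P-ATP and run 2 h; phosphorylation is read by P81 filter binding, and IC50 comes from a 10-point curve.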

LATS1 = target: T1, LATS1 (Homo sapiens, UniProt O95835); experiment: RBC HotSpot kinase assay (33P-ATP, P81 filter-binding), LATS1; assay type: biochemical; details: biochemical kinase inhibition; read-out: LATS1 IC50
T1 sequence (O95835 1-1130): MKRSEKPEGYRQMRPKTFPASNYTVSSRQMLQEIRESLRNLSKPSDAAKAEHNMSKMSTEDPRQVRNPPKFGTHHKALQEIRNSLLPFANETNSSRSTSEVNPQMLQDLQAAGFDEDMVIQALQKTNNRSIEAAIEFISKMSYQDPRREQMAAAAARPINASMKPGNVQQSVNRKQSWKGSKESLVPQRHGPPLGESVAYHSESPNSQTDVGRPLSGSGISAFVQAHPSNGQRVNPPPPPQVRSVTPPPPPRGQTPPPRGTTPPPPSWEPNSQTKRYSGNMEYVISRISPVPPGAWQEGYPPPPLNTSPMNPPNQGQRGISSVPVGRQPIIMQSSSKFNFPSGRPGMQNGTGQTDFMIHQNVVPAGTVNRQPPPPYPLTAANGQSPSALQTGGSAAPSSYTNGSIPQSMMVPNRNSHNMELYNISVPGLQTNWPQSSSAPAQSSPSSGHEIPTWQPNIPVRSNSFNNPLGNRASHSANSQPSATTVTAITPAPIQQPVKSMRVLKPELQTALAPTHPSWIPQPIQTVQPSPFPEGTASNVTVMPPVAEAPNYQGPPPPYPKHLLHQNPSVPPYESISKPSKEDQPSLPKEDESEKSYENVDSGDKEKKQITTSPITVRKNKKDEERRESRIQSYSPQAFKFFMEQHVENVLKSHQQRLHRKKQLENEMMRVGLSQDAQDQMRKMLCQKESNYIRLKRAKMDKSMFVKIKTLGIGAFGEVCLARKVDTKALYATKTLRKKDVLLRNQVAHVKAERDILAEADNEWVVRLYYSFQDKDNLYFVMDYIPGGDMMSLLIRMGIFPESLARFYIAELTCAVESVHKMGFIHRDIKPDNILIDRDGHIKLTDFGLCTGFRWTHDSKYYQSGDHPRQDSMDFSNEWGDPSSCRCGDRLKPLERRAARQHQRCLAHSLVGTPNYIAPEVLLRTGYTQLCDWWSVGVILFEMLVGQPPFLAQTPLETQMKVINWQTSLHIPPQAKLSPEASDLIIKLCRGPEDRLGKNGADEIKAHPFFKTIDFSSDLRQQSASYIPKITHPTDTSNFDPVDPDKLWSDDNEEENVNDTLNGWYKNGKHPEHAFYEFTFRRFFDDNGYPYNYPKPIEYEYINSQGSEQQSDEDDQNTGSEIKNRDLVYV
Summary of the method: as §1

Chain of AKT (P31749 whole entry): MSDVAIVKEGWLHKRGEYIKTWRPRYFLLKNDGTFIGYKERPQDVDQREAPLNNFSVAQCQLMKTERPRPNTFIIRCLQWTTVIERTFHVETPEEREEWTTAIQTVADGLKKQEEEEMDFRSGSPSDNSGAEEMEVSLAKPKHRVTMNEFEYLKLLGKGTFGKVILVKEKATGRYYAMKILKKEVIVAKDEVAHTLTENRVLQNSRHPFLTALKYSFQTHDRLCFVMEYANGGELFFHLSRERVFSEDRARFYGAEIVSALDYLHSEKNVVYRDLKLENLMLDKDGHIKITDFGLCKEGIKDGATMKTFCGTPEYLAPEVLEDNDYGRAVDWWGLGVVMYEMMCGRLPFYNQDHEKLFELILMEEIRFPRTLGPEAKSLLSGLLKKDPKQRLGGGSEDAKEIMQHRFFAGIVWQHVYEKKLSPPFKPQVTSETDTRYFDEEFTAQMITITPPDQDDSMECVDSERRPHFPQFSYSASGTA

Structure (SMILES): Cc1cc(-c2ccnc3[nH]cc(C#N)c23)ccc1[C@@]1(O)[C@H](C)CN(C2CCS(=O)(=O)CC2)C[C@@H]1C [Compound 2003, 4-(4-((3S,4s,5R)-1-(1,1-dioxidotetrahydro-2H-thiopyran-4-yl)-4-hydroxy-3,5-dimethylpiperidin-4-yl)-3-methylphenyl)-1H-pyrrolo[2,3-b]pyridine-3-carbonitrile]
- IC50 (AKT): 12.1 nM
- IC50 (LATS1): 5.6 nM
